From US5869484A, “Phenylcarbamate derivatives suitable to the use as anticholinesterase substances” (priority 1994, dated 1999) come the findings set out here.

By IC50 is commonly meant the midpoint of a concentration-inhibition curve. Read a high IC50 as lower potency.

For assay [1], the target named is T1, BuChE hserum (Homo sapiens, UniProt P06276).
T1 construct: purchased Sigma Chemical; host or cells: human serum
In words: Inhibition of butyrylcholinesterase from human serum (Ellman method). The class given is biochemical. Conditions: for activity on the BuChE: Table 1. As for the experimental part:
(§1) The incubation time between enzyme and product used for the determinations has been 10'.
(§2) The acetylcholinesterase from human erythrocytes (AChE hRBC), the acetylcholinesterase from Electric Eel (AChE E.eel) and the butyrylcholinesterase from human serum (BuChE hserum) coming from the Sigma Chemical have been used.

The target in assay [2] is T2, AChE hRBC (Homo sapiens, UniProt P22303).
T2 construct: purchased Sigma Chemical; host or cells: human erythrocytes
Description: biochemical. Conditions: for AChE inhibitory activity and selectivity: AChE versus BuChE, Table 1; for potency compared with eptastigmine, physostigmine or tacrine: comparison from Table 1. As for the experimental part:
as §1, §2

The target in assay [3] is T3, AChE E. eel (Electrophorus electricus, UniProt O42275).
T3 construct: purchased Sigma Chemical
Description: biochemical. On the set-up: species or system Electric Eel. Here is the method: as §1, §2

T1 sequence (P06276 29-602): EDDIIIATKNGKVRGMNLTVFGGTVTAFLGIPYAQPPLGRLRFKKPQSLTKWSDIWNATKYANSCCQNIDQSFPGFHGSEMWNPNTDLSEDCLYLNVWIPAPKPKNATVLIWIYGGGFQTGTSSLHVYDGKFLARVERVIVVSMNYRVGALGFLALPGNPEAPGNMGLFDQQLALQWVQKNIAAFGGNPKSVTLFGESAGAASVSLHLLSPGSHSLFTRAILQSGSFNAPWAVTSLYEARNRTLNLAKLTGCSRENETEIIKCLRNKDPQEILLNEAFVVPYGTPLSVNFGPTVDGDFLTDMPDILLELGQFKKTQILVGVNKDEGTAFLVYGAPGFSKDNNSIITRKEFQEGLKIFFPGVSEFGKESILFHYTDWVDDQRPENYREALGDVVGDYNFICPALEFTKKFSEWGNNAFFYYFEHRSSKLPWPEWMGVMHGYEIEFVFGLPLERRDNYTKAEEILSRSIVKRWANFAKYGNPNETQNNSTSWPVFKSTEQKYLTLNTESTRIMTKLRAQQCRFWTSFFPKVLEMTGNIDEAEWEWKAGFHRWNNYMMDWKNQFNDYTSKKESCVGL
T3 sequence (O42275 24-633): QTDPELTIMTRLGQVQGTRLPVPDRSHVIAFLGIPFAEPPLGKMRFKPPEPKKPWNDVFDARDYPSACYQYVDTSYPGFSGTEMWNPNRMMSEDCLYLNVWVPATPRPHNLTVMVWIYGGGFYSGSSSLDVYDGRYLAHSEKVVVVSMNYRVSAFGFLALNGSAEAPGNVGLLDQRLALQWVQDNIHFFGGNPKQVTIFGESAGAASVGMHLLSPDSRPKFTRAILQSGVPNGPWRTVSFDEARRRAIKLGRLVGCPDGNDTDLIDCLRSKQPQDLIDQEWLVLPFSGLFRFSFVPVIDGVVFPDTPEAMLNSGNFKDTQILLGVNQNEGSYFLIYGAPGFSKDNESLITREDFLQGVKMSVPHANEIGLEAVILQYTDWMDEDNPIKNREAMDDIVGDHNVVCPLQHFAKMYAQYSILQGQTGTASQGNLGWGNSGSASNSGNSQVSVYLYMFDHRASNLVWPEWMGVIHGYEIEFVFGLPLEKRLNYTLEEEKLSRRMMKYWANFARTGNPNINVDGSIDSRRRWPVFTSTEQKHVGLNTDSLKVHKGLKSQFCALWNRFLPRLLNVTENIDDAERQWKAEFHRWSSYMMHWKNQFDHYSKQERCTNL
T2 sequence (P22303 32-617 isoform P22303-2 limits assumed): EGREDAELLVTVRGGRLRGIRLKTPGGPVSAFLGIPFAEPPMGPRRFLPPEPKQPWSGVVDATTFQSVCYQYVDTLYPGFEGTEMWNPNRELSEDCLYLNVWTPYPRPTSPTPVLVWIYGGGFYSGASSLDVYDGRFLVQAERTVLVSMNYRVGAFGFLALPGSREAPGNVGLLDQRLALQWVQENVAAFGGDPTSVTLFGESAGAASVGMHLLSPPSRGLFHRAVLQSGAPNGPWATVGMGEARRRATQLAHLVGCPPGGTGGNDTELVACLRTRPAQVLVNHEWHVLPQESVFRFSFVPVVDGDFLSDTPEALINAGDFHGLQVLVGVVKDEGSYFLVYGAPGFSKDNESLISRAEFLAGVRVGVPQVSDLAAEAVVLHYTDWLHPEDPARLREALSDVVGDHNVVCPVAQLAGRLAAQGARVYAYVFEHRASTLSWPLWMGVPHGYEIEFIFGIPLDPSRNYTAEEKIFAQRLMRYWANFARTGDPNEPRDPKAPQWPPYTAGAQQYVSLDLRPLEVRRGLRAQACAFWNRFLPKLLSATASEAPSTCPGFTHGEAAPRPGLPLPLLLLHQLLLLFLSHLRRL

As for `CN(C)CC(C)(C)c1cccc(OC(=O)N(C)c2ccc(Cl)cc2)c1` [Ex. 37, 3-[(1-dimethylamino-2-methyl)prop-2-yl]-N-(4-chloro)phenyl-N-methyl phenylcarbamate], in assay [1], the IC50 turned out to be 8000 nM and the “activity on the BuChE” value is listed as “poor activity on the BuChE”. In assay [2], the half-inhibitory concentration (IC50) is 60 nM; the “AChE inhibitory activity and selectivity” value was “potent and selective AChE inhibitory activity”; the “potency compared with eptastigmine, physostigmine or tacrine” value (shortened to “potency compared with eptastigmine”) is listed as “equal or even superior to that of eptastigmine or of physostigmine”.
On to `Cc1cccc(NC(=O)Oc2cccc(C(C)(C)CN(C)C)c2)c1` [Ex. 21, 3-[(1-dimethylamino-2-methyl)prop-2-yl]-N-(3-methyl)phenyl phenylcarbamate], for which the 50% inhibitory concentration (IC50) in assay [1] came out at 500 nM; in assay [2], 600 nM.
Regarding `CN(Cc1ccccc1)CC(C)(C)c1cccc(OC(=O)NCCCCCCCCN2CCOCC2)c1` [Ex. 16, 3-[(1-(N-benzyl-N-methyl)amino-2-methyl)prop-2-yl]-N-[8-(4-morpholinyl)-octyl]-phenylcarbamate], the results for the half-maximal inhibitory concentration (IC50) in assay [1], in assay [2] and in assay [3] were 7 nM, 4800 nM and 14000 nM, respectively.
`COc1cccc(NC(=O)Oc2cccc(C(C)(C)CN(C)C)c2)c1` [Ex. 22, 3-[(1-dimethylamino-2-methyl)prop-2-yl]-N-(3-methoxy)phenyl phenylcarbamate]: the concentration for half-maximal inhibition (IC50) in assay [1] was found to be 600 nM; in assay [2], 210 nM.
Take `COc1cc2nc(NCCCCCCCNC(=O)Oc3cccc(C(C)(C)CN(C)C)c3)nc(N)c2cc1OC` [Ex. 13, 3-[(1-dimethylamino-2-methyl)prop-2-yl]-N-[N-[(4-amino-6,7-dimethoxy)quinazolin-2-yl]aminoheptyl]-phenyl carbamate]: the values for the IC50 in assay [1], in assay [2] and in assay [3] were 28 nM, 15 nM and 23 nM, respectively. In addition, in assay [2], the “potency compared with eptastigmine” value is on record as “equal or even superior to that of eptastigmine or of physostigmine”.
On to `CCN(C(=O)Oc1cccc(C(C)(C)CN(C)C)c1)c1ccc(OC)cc1` [Ex. 36, 3-[(1-dimethylamino-2-methyl)prop-2-yl]-N-ethyl-N-(4-methoxy)phenyl phenylcarbamate], for which the IC50 in assay [1] was 21000 nM; in assay [2], 1100 nM.
Turning to `CCCCCCCNC(=O)Oc1cccc(C(C)(C)CN(C)C)c1` [Ex. 5, 3-[(1-dimethylamino-2-methyl)prop-2-yl]-N-heptyl-phenyl carbamate], the half-maximal inhibitory concentration (IC50) in assay [1] was 30 nM; in assay [2] it was 180 nM; in assay [3] it was 120 nM. Also, the “potency compared with eptastigmine” value in assay [2] is reported as “equal or even superior to that of eptastigmine or of physostigmine”.
In turn, `CN(C)CC(C)(C)c1cccc(OC(=O)Nc2ccccc2)c1` [Ex. 19, 3-[1(1-dimethylamino-2-methyl)prop-2-yl]-N-phenyl phenylcarbamate] displayed an IC50 in assay [1] of 230 nM. Further, in assay [2], half-maximal inhibition (IC50) required 100 nM and the “potency compared with eptastigmine” value was “equal or even superior to that of eptastigmine or of physostigmine”.
Consider `CN(C)CC(C)(C)c1cccc(OC(=O)NCc2ccccc2)c1` [Ex. 24, 3-[(1-dimethylamino-2-methyl)prop-2-yl]-N-benzyl-phenylcarbamate], for which, in assay [1], half-maximal inhibition (IC50) required 1.3 nM. In addition, in assay [2], the IC50 came out at 60 nM and the “potency compared with eptastigmine” value is recorded as “equal or even superior to that of eptastigmine or of physostigmine”.
`CCCCNC(=O)Oc1cccc(C(C)(C)CN(C)C)c1` [Ex. 4, 3-[(1-dimethylamino-2-methyl)prop-2-yl]-N-butylphenyl carbamate]: the figures for the half-maximal inhibitory concentration (IC50) in assay [1], in assay [2] and in assay [3] were 1.6 nM, 130 nM and 250 nM, respectively. In addition, the “potency compared with eptastigmine” value in assay [2] is recorded as “equal or even superior to that of eptastigmine or of physostigmine”.
For the compound `CN(C)CC(C)(C)c1cccc(OC(=O)Nc2cccc(F)c2)c1` [Ex. 20, 3-[(1-dimethylamino-2-methyl)prop-2-yl]-N-(3-fluoro)phenyl phenylcarbamate], in assay [1], the IC50 was > 100000 nM and the “activity on the BuChE” value is recorded as “poor activity on the BuChE”. Moreover, in assay [2], half-maximal inhibition (IC50) required 220 nM; the “AChE inhibitory activity and selectivity” value was “potent and selective AChE inhibitory activity”.
Take `CN(C)CC(C)(C)c1cccc(OC(=O)N(C)c2cccc(C(F)(F)F)c2)c1` [Ex. 39, 3-[(1-dimethylamino-2-methyl)prop-2-yl]-N-methyl-N-(3-trifluoromethyl) phenyl phenylcarbamate]: in assay [1], the half-inhibitory concentration (IC50) is > 100000 nM and the “activity on the BuChE” value is “poor activity on the BuChE”. In assay [2], the midpoint of inhibition, the IC50, lay at 1100 nM; the “AChE inhibitory activity and selectivity” value is “potent and selective AChE inhibitory activity”.
As for `CN(C)CC(C)(C)c1cccc(OC(=O)Nc2cccc(Cl)c2)c1` [Ex. 23, 3-[(1-dimethylamino-2-methyl)prop-2-yl]-N-(3-chloro)phenyl phenylcarbamate], in assay [1], the half-inhibitory concentration (IC50) was > 100000 nM and the “activity on the BuChE” value was “poor activity on the BuChE”. Moreover, in assay [2], the IC50 is 220 nM; the “AChE inhibitory activity and selectivity” value is “potent and selective AChE inhibitory activity”.
Regarding `C[C@H]1CN(CCCCCCCCNC(=O)Oc2cccc(C(C)(C)CN(C)C)c2)C[C@H](C)O1` (relative stereo) [Ex. 3, 3-[(1-dimethylamino-2-methyl)-prop-2-yl]-N-[8-[4-(trans 2,6-dimethyl)morpholinyl]octyl]-phenylcarbamate], the figures for the half-inhibitory concentration (IC50) in assay [1], in assay [2] and in assay [3] were 20 nM, 200 nM and 1200 nM, respectively.
Consider `COc1cc2nc(N3CCN(C(=O)CCCCCCCNC(=O)Oc4cccc(C(C)(C)CN(C)C)c4)CC3)nc(N)c2cc1OC` [Ex. 12, 3-[(1-dimethylamino-2-methyl)prop-2-yl]-N-[1-[4-(4-amino-6,7-dimethoxy)quinazolin-2-yl]piperazinyl]-8-octanoyl]-phenyl carbamate], for which the IC50 in assay [1] was found to be 50 nM; in assay [2], 80 nM; in assay [3], 17 nM. Also, in assay [2], the “potency compared with eptastigmine” value is “equal or even superior to that of eptastigmine or of physostigmine”.
Consider `CN(C)CC(C)(C)c1cccc(OC(=O)NCCCCCCCCCCN2CCOCC2)c1` [Ex. 18, 3-[(1-dimethylamino-2-methyl)prop-2-yl]-N-[10-(4-morpholinyl)decyl]-phenylcarbamate], for which, in assay [2], the IC50 was 100 nM and the “potency compared with eptastigmine” value was “equal or even superior to that of eptastigmine or of physostigmine”.
As for `CN(C)CC(C)(C)c1cccc(OC(=O)N(C)c2cccc(Cl)c2)c1` [Ex. 26, 3-[(1-dimethylamino-2-methyl)prop-2-yl]-N-(3-chloro)-phenyl-N-methyl-phenylcarbamate], in assay [1], the concentration for half-maximal inhibition (IC50) was 220000 nM and the “activity on the BuChE” value is given as “poor activity on the BuChE”. In assay [2], the 50% inhibitory concentration (IC50) came out at 400 nM; the “AChE inhibitory activity and selectivity” value was “potent and selective AChE inhibitory activity”.
Turning to `CCCCN(C(=O)Oc1cccc(C(C)(C)CN(C)C)c1)c1ccccc1` [Ex. 32, 3-[(1-dimethylamino-2-methyl)prop-2-yl]-N-butyl-N-phenyl phenylcarbamate], the IC50 in assay [1] came to 70000 nM; in assay [2] it was 420 nM.
Regarding `CC(CN(C)C)c1cccc(OC(=O)NCCCCCCCCN2CCOCC2)c1` (centres unmarked) [Ex. 8, 3-[(1-dimethylamino)prop-2-yl]-N-[8-(4-morpholinyl)octyl]-phenyl carbamate], the concentration for half-maximal inhibition (IC50) turned out to be 14 nM in assay [1], 220 nM in assay [2] and 1300 nM in assay [3].
